According to US20230085307A1, “PYRIDAZINONE COMPOUND AND HERBICIDE” (NISSAN CHEMICAL CORPORATION, priority 2019, published 2023):

Test system: lambsquarters
Test: Test Example 4: herbicidal effect by soil treatment (Table 19, symbol O)
Format: in vivo, lambsquarters (Chenopodium album)
Settings: amount of applied herbicide 320 g/ha
Procedure, shortened: (§1)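 Pre-emergence style soil spray: seeds under ~1.5 cm sterilized diluvial soil received a uniform coat of emulsion diluted to the predetermined herbicide amount. Greenhouse 25–30° C; readout at week three on previously defined criteria.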

Row | Compound | O: lambsquarters, herbicidal effect grade
1 | CCCC(=O)Oc1c(C)nn(C)c(=O)c1-c1c(-c2ccc(F)cc2OC)sc2cc(Cl)c(Cl)cc12 [5-052] | 3 (Herbicidal rate of 40% or more and less than 70%)

Test system: Japanese bulrush
Test: Test Example 1: herbicidal activity, application before weed generation under submerged conditions (Table 16, symbol B)
Format: in vivo, Japanese bulrush (Schoenoplectus juncoides)
Settings: amount of applied herbicide 320 g/ha
Procedure, shortened: (§2)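 Submerged Wagner pots (alluvial soil, 4 cm water) sown with weed seeds and planted with 2.5-leaf rice seedlings; emulsifiable concentrate diluted in water applied to water surface on sowing day. Held in greenhouse at 25-30 °C; injury scored 0-5 by herbicidal rate after three weeks.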

Row | Compound | Herbicidal effect, B: Japanese bulrush
2 | CCCC(=O)Oc1c(C)nn(C)c(=O)c1-c1c(-c2ccc(F)cc2OC)sc2cc(Cl)c(Cl)cc12 [5-052] | 3 (Herbicidal rate of 40% or more and less than 70%)

Test system: rice flat sedge
Test: Test Example 3: herbicidal effect by foliage application, Wagner pot (Table 18, symbol E)
Format: in vivo, rice flat sedge (Cyperus iria)
Settings: 320 g/ha
Procedure, shortened: (§3)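 Plants were sown in alluvial soil held under 0.1–0.5 cm standing water and grown 14 days in a greenhouse at 25–30 °C. An emulsifiable formulation, water-diluted to the set dose, was then sprayed onto the foliage, and effects were scored three weeks later using previously defined criteria.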

Row | Compound | herbicidal effect on rice flat sedge (E)
3 | CCCC(=O)Oc1c(C)nn(C)c(=O)c1-c1c(-c2ccc(F)cc2OC)sc2cc(Cl)c(Cl)cc12 [5-052] | 5 (Herbicidal rate of 90% or more (almost completely withered))

Test system: redroot pigweed
Test: Test Example 4: herbicidal effect by soil treatment (Table 19, symbol N)
Format: in vivo, redroot pigweed (Amaranthus retroflexus)
Settings: amount of applied herbicide 320 g/ha
Procedure, shortened: as §1

Row | Compound | N: redroot pigweed, herbicidal effect grade
4 | CCCC(=O)Oc1c(C)nn(C)c(=O)c1-c1c(-c2ccc(F)cc2OC)sc2cc(Cl)c(Cl)cc12 [5-052] | 2 (Herbicidal rate of 20% or more and less than 40%)

Test system: barnyard grass
Test: Test Example 4: herbicidal effect by soil treatment (Table 19, symbol H)
Format: in vivo, barnyard grass (Echinochloa crus-galli)
Settings: amount of applied herbicide 320 g/ha
Procedure, shortened: as §1

Row | Compound | H: barnyard grass, herbicidal effect grade
5 | CCCC(=O)Oc1c(C)nn(C)c(=O)c1-c1c(-c2ccc(F)cc2OC)sc2cc(Cl)c(Cl)cc12 [5-052] | 0 (Herbicidal rate of 5% or less (almost no effect))

Test system: windgrass
Test: Test Example 5: herbicidal effect by foliage application, plastic box (Table 20, symbol L)
Format: in vivo, windgrass (Apera spica-venti)
Settings: foliage application, 320 g/ha, three weeks after application
Procedure, shortened: (§4)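 Plants were sown into sterilized diluvial soil under about 1.5 cm cover and kept in a greenhouse at 25° C. to 30° C. Fourteen days on, foliage received an even spray of the diluted emulsion. Herbicidal or crop effect was judged three weeks afterwards.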

Row | Compound | herbicidal effect on windgrass (L)
6 | CCCC(=O)Oc1c(C)nn(C)c(=O)c1-c1c(-c2ccc(F)cc2OC)sc2cc(Cl)c(Cl)cc12 [5-052] | 4 (Herbicidal rate of 70% or more and less than 90%)

Test system: windgrass
Test: Test Example 4: herbicidal effect by soil treatment (Table 19, symbol L)
Format: in vivo, windgrass (Apera spica-venti)
Settings: amount of applied herbicide 320 g/ha
Procedure, shortened: as §1

Row | Compound | L: windgrass, herbicidal effect grade
7 | CCCC(=O)Oc1c(C)nn(C)c(=O)c1-c1c(-c2ccc(F)cc2OC)sc2cc(Cl)c(Cl)cc12 [5-052] | 0 (Herbicidal rate of 5% or less (almost no effect))

Test system: southern crabgrass
Test: Test Example 5: herbicidal effect by foliage application, plastic box (Table 20, symbol F)
Format: in vivo, southern crabgrass (Digitaria ciliaris)
Settings: foliage application, 320 g/ha, three weeks after application
Procedure, shortened: as §4

Row | Compound | herbicidal effect on southern crabgrass (F)
8 | CCCC(=O)Oc1c(C)nn(C)c(=O)c1-c1c(-c2ccc(F)cc2OC)sc2cc(Cl)c(Cl)cc12 [5-052] | 0 (Herbicidal rate of 5% or less (almost no effect))

Test system: late watergrass
Test: Test Example 1: herbicidal activity, application before weed generation under submerged conditions (Table 16, symbol A)
Format: in vivo, late watergrass (Echinochloa oryzicola)
Settings: amount of applied herbicide 320 g/ha
Procedure, shortened: as §2

Row | Compound | Herbicidal effect, A: late watergrass
9 | CCCC(=O)Oc1c(C)nn(C)c(=O)c1-c1c(-c2ccc(F)cc2OC)sc2cc(Cl)c(Cl)cc12 [5-052] | 0 (Herbicidal rate of 5% or less (almost no effect))

Test system: wild oat
Test: Test Example 4: herbicidal effect by soil treatment (Table 19, symbol I)
Format: in vivo, wild oat (Avena fatua)
Settings: amount of applied herbicide 320 g/ha
Procedure, shortened: as §1

Row | Compound | I: wild oat, herbicidal effect grade
10 | CCCC(=O)Oc1c(C)nn(C)c(=O)c1-c1c(-c2ccc(F)cc2OC)sc2cc(Cl)c(Cl)cc12 [5-052] | 0 (Herbicidal rate of 5% or less (almost no effect))

Test system: blackgrass
Test: Test Example 4: herbicidal effect by soil treatment (Table 19, symbol J)
Format: in vivo, blackgrass (Alopecurus myosuroides)
Settings: amount of applied herbicide 320 g/ha
Procedure, shortened: as §1

Row | Compound | J: blackgrass, herbicidal effect grade
11 | CCCC(=O)Oc1c(C)nn(C)c(=O)c1-c1c(-c2ccc(F)cc2OC)sc2cc(Cl)c(Cl)cc12 [5-052] | 0 (Herbicidal rate of 5% or less (almost no effect))

Test system: Italian ryegrass
Test: Test Example 5: herbicidal effect by foliage application, plastic box (Table 20, symbol K)
Format: in vivo, Italian ryegrass (Lolium multiflorum)
Settings: foliage application, 320 g/ha, three weeks after application
Procedure, shortened: as §4

Row | Compound | herbicidal effect on Italian ryegrass (K)
12 | CCCC(=O)Oc1c(C)nn(C)c(=O)c1-c1c(-c2ccc(F)cc2OC)sc2cc(Cl)c(Cl)cc12 [5-052] | 0 (Herbicidal rate of 5% or less (almost no effect))

Test system: barnyard grass
Test: Test Example 5: herbicidal effect by foliage application, plastic box (Table 20, symbol H)
Format: in vivo, barnyard grass (Echinochloa crus-galli)
Settings: foliage application, 320 g/ha, three weeks after application
Procedure, shortened: as §4

Row | Compound | herbicidal effect on barnyard grass (H)
13 | CCCC(=O)Oc1c(C)nn(C)c(=O)c1-c1c(-c2ccc(F)cc2OC)sc2cc(Cl)c(Cl)cc12 [5-052] | 4 (Herbicidal rate of 70% or more and less than 90%)

Test system: chickweed
Test: Test Example 4: herbicidal effect by soil treatment (Table 19, symbol P)
Format: in vivo, common chickweed (Stellaria media)
Settings: amount of applied herbicide 320 g/ha
Procedure, shortened: as §1

Row | Compound | P: chickweed, herbicidal effect grade
14 | CCCC(=O)Oc1c(C)nn(C)c(=O)c1-c1c(-c2ccc(F)cc2OC)sc2cc(Cl)c(Cl)cc12 [5-052] | 3 (Herbicidal rate of 40% or more and less than 70%)

Test system: Italian ryegrass
Test: Test Example 4: herbicidal effect by soil treatment (Table 19, symbol K)
Format: in vivo, Italian ryegrass (Lolium multiflorum)
Settings: amount of applied herbicide 320 g/ha
Procedure, shortened: as §1

Row | Compound | K: Italian ryegrass, herbicidal effect grade
15 | CCCC(=O)Oc1c(C)nn(C)c(=O)c1-c1c(-c2ccc(F)cc2OC)sc2cc(Cl)c(Cl)cc12 [5-052] | 0 (Herbicidal rate of 5% or less (almost no effect))

Test system: green foxtail
Test: Test Example 4: herbicidal effect by soil treatment (Table 19, symbol G)
Format: in vivo, green foxtail (Setaria viridis)
Settings: amount of applied herbicide 320 g/ha
Procedure, shortened: as §1

Row | Compound | G: green foxtail, herbicidal effect grade
16 | CCCC(=O)Oc1c(C)nn(C)c(=O)c1-c1c(-c2ccc(F)cc2OC)sc2cc(Cl)c(Cl)cc12 [5-052] | 0 (Herbicidal rate of 5% or less (almost no effect))

Test system: oval-leafed pondweed
Test: Test Example 1: herbicidal activity, application before weed generation under submerged conditions (Table 16, symbol C)
Format: in vivo, oval-leafed pondweed (Monochoria vaginalis)
Settings: amount of applied herbicide 320 g/ha
Procedure, shortened: as §2

Row | Compound | Herbicidal effect, C: oval-leafed pondweed
17 | CCCC(=O)Oc1c(C)nn(C)c(=O)c1-c1c(-c2ccc(F)cc2OC)sc2cc(Cl)c(Cl)cc12 [5-052] | 0 (Herbicidal rate of 5% or less (almost no effect))

Test system: blackgrass
Test: Test Example 5: herbicidal effect by foliage application, plastic box (Table 20, symbol J)
Format: in vivo, blackgrass (Alopecurus myosuroides)
Settings: foliage application, 320 g/ha, three weeks after application
Procedure, shortened: as §4

Row | Compound | herbicidal effect on blackgrass (J)
18 | CCCC(=O)Oc1c(C)nn(C)c(=O)c1-c1c(-c2ccc(F)cc2OC)sc2cc(Cl)c(Cl)cc12 [5-052] | 4 (Herbicidal rate of 70% or more and less than 90%)

Test system: barnyard grass
Test: Test Example 3: herbicidal effect by foliage application, Wagner pot (Table 18, symbol H)
Format: in vivo, barnyard grass (Echinochloa crus-galli)
Settings: 320 g/ha
Procedure, shortened: as §3

Row | Compound | herbicidal effect on barnyard grass (H)
19 | CCCC(=O)Oc1c(C)nn(C)c(=O)c1-c1c(-c2ccc(F)cc2OC)sc2cc(Cl)c(Cl)cc12 [5-052] | 5 (Herbicidal rate of 90% or more (almost completely withered))

Test system: wild oat
Test: Test Example 5: herbicidal effect by foliage application, plastic box (Table 20, symbol I)
Format: in vivo, wild oat (Avena fatua)
Settings: foliage application, 320 g/ha, three weeks after application
Procedure, shortened: as §4

Row | Compound | herbicidal effect on wild oat (I)
20 | CCCC(=O)Oc1c(C)nn(C)c(=O)c1-c1c(-c2ccc(F)cc2OC)sc2cc(Cl)c(Cl)cc12 [5-052] | 0 (Herbicidal rate of 5% or less (almost no effect))

Test system: southern crabgrass
Test: Test Example 4: herbicidal effect by soil treatment (Table 19, symbol F)
Format: in vivo, southern crabgrass (Digitaria ciliaris)
Settings: amount of applied herbicide 320 g/ha
Procedure, shortened: as §1

Row | Compound | F: southern crabgrass, herbicidal effect grade
21 | CCCC(=O)Oc1c(C)nn(C)c(=O)c1-c1c(-c2ccc(F)cc2OC)sc2cc(Cl)c(Cl)cc12 [5-052] | 0 (Herbicidal rate of 5% or less (almost no effect))

Test system: velvetleaf
Test: Test Example 5: herbicidal effect by foliage application, plastic box (Table 20, symbol M)
Format: in vivo, velvetleaf (Abutilon theophrasti)
Settings: foliage application, 320 g/ha, three weeks after application
Procedure, shortened: as §4

Row | Compound | herbicidal effect on velvetleaf (M)
22 | CCCC(=O)Oc1c(C)nn(C)c(=O)c1-c1c(-c2ccc(F)cc2OC)sc2cc(Cl)c(Cl)cc12 [5-052] | 4 (Herbicidal rate of 70% or more and less than 90%)

Test system: Chinese sprangletop
Test: Test Example 3: herbicidal effect by foliage application, Wagner pot (Table 18, symbol D)
Format: in vivo, chinese sprangletop (Leptochloa chinensis)
Settings: 320 g/ha
Procedure, shortened: as §3

Row | Compound | herbicidal effect on Chinese sprangletop (D)
23 | CCCC(=O)Oc1c(C)nn(C)c(=O)c1-c1c(-c2ccc(F)cc2OC)sc2cc(Cl)c(Cl)cc12 [5-052] | 3 (Herbicidal rate of 40% or more and less than 70%)

Test system: lambsquarters
Test: Test Example 5: herbicidal effect by foliage application, plastic box (Table 20, symbol O)
Format: in vivo, lambsquarters (Chenopodium album)
Settings: foliage application, 320 g/ha, three weeks after application
Procedure, shortened: as §4

Row | Compound | herbicidal effect on lambsquarters (O)
24 | CCCC(=O)Oc1c(C)nn(C)c(=O)c1-c1c(-c2ccc(F)cc2OC)sc2cc(Cl)c(Cl)cc12 [5-052] | 5 (Herbicidal rate of 90% or more (almost completely withered))

Test system: green foxtail
Test: Test Example 5: herbicidal effect by foliage application, plastic box (Table 20, symbol G)
Format: in vivo, green foxtail (Setaria viridis)
Settings: foliage application, 320 g/ha, three weeks after application
Procedure, shortened: as §4

Row | Compound | herbicidal effect on green foxtail (G)
25 | CCCC(=O)Oc1c(C)nn(C)c(=O)c1-c1c(-c2ccc(F)cc2OC)sc2cc(Cl)c(Cl)cc12 [5-052] | 3 (Herbicidal rate of 40% or more and less than 70%)

Test system: persian speedwell
Test: Test Example 5: herbicidal effect by foliage application, plastic box (Table 20, symbol R)
Format: in vivo, Persian speedwell (Veronica persica)
Settings: foliage application, 320 g/ha, three weeks after application
Procedure, shortened: as §4

Row | Compound | herbicidal effect on persian speedwell (R)
26 | CCCC(=O)Oc1c(C)nn(C)c(=O)c1-c1c(-c2ccc(F)cc2OC)sc2cc(Cl)c(Cl)cc12 [5-052] | 4 (Herbicidal rate of 70% or more and less than 90%)

Test system: velvetleaf
Test: Test Example 4: herbicidal effect by soil treatment (Table 19, symbol M)
Format: in vivo, velvetleaf (Abutilon theophrasti)
Settings: amount of applied herbicide 320 g/ha
Procedure, shortened: as §1

Row | Compound | M: velvetleaf, herbicidal effect grade
27 | CCCC(=O)Oc1c(C)nn(C)c(=O)c1-c1c(-c2ccc(F)cc2OC)sc2cc(Cl)c(Cl)cc12 [5-052] | 0 (Herbicidal rate of 5% or less (almost no effect))

Test system: persian speedwell
Test: Test Example 4: herbicidal effect by soil treatment (Table 19, symbol R)
Format: in vivo, Persian speedwell (Veronica persica)
Settings: amount of applied herbicide 320 g/ha
Procedure, shortened: as §1

Row | Compound | R: persian speedwell, herbicidal effect grade
28 | CCCC(=O)Oc1c(C)nn(C)c(=O)c1-c1c(-c2ccc(F)cc2OC)sc2cc(Cl)c(Cl)cc12 [5-052] | 0 (Herbicidal rate of 5% or less (almost no effect))
